Assay results reported in US20040033213A1, “Methods of modulating dendritic cells using adjuvants” (Corixa Corporation, priority 2002, published 2004).

Assays:
[1] = test system: KJ1 positive D011.10 CD4 T cells; assay: OVA pulsed DC transfer into D011.10 loaded Balb/c mice; assay type: in vivo; conditions: for Total KJ1 Positive Cells/Spleen: others 100 ng/ml
Procedure: In a second experiment 6-7 day bone marrow derived (Balb/c) DCs were pulsed with antigen and subsequently stimulated overnight with LPS, MPL® immunostimulant-S, and RC-527 (Table 6). 5×10^6 D011.10 CD4 (KJ1-positive) T cells were transferred into Balb/c mice, and 24 hours later ova-pulsed cultured, DCs from the control group (pulsed with ova only) and the indicated test DCs potentiated with LPS, MPL® immunostimulant-S or RC-527 were also injected intravenously. […] The transferred DCs stimulated with ova only, ova+LPS and ova+MPL® immunostimulant-S produced a similar effect in inducing the amplification of D011.10 T lymphocyte numbers above the value observed when untreated DCs (i.e., no ova and no lipid A) were used as the putative APC source and transfected into Balb/c mice preinjected with KJ1 CD4 cells.
5×10^6 KJ1 positive D011.10 spleen cells were injected into Balb/c mice (I.V.) on day zero minus 1; 24 hrs later 5×10^6 DC's from the indicated in vitro induction test groups were injected I.V. and the spleens from test animals were harvested 3 and 5 days later for total KJ1 enumeration.

[2] = test system: cryogenically stored 10 day murine DCs + D011.10 effector T cells; assay: Cryogenically preserved 10 day murine DCs in the D011.10 T cell assay (IFN-γ ELISA); assay type: cell-based
Procedure: In order to determine if 10 day GM-CSF precultured DCs could be recovered from cryogenic storage and still retain their functional potential, studies were carried out to determine the functional integrity of LPS- and RC-527-stimulated, cryogenically preserved, 10 day DCs in the D011.10 T cell assay system. Specifically, 10 day GM-CSF-precultured DCs were stored in liquid nitrogen for several weeks. The cells were subsequently thawed and maintained for 24 hours in tissue culture in the presence of GM-CSF. After 24 hours in this “resting” culture, DCs were pulsed with ova for four hours and potentiated with LPS for 24 hours prior to placing them against D011.10 effector T cells at 4:1 and 8:1 ratios.
D011.10 effector T cell cultures were maintained for 24 hours and 48 hours, and culture supernatants were collected at both time points. These supernatants were tested for IFN-γ using a commercial ELISA system. The IFNγ response induced either by antigen-pulsed, lipid A stimulated DCs after 24 hours incubation with D011.10 T cells (FIG. 13a) or by LPS and RC-527 stimulated, cryogenically stored, cultured DCs after 48 hours of incubation with D011.10 effector T cells (FIG. 13b) was measured.

[3] = test system: cultured human dendritic cells (DC); assay: Flow cytometry of cell surface activation markers on human DCs restimulated 72 hours with AGPs (titration); assay type: cell-based; conditions: for DC expression of CD83 (in words): FIG. 16
Procedure: Dendritic cells are developed in-vitro from human CD14+ monocyte precursors using standard 7 day GM-CSF ([…]) and IL-4 ([…]) culture conditions. The cultured DCs are >90% CD11c^+/HLA-DR^+/lineage^− by flow cytometry analysis. FIGS. 15-18 show the results of flow cytometry analysis of gated CD11c^+/HLA-DR^+/lineage^− human DCs after they were restimulated in-vitro for 72 hours in the presence of selected AGPs at a titration range of 0.1 μg/ml-2 μg/ml. Data is expressed as the percent of gated DCs which are positive for the indicated marker (y-axis) versus the logo10 of the AGP or lipid A concentration. R595 LPS was used in each induction at 10 ng/ml as a positive control—the negative control was unstimulated human dendritic cells cultured for 72 hours in the same medium conditions used for AGP stimulation. Data was analyzed using non-linear regression analysis—all data was modeled using a 3rd order polynomial to determiine the best curve fit.

[4] = test system: cultured human dendritic cells (DC); assay: as above; assay type: cell-based; conditions: titration 0.1-2 μg/ml, FIG. 18
[5] = 72 hours, titration 0.1-2 μg/ml, FIG. 15
[6] = 72 hours, titration 0.1-2 μg/ml
[7] = single analysis, one normal donor

| SMILES | Total KJ1 Positive Cells/Spleen ([1]; Day 3 after I.V. transfer of 5×10^6 OVA pulsed DCs stimulated in vitro, LPS 10 ng/ml) | Total KJ1 Positive Cells/Spleen ([1]; Day 5 after I.V. transfer of 5×10^6 OVA pulsed DCs stimulated in vitro, LPS 10 ng/ml) | splenic KJ1+ CD4 T cell numbers (in words) ([1]; day 3 and day 5 after transfer of stimulated DCs) | KJ1+ CD4 response, % of all splenic CD4 cells ([1]; second, similar DC transfer experiment, at 5 days, LPS 10 ng/ml, MPL-S 100 ng/ml) [%] | IFN-γ response of cryogenically stored DCs after antigen pulsing and activation (in words) ([2]; compared with unfrozen 10 day DCs) | IFN-γ response, 48 hours versus 24 hours of incubation (in words) ([2]; cryogenically stored DCs, FIG. 13) | cell surface expression of CD80 (in words) [3, 5] | DC expression of CD83 (in words) [3, 6] | cell surface expression of CD40 (in words) ([3]; 72 hours, titration 0.1-2 μg/ml, FIG. 17) | concentration at which the effect is usually already maximized [3, 7] [ng/mL] | overall induction of DC maturation and co-stimulatory molecule expression (in words) [3, 7] | CD86 expression, mean channel fluorescence (in words) [4] | concentration at which the CD80 effect appears to plateau ([3]; 72 hours, FIG. 15) [µg/mL] | concentration at which the CD86 effect plateaus or maximizes ([3]; 72 hours, FIG. 18) [µg/mL] |
| --- | --- | --- | --- | --- | --- | --- | --- | --- | --- | --- | --- | --- | --- | --- |
| CCCCCCCCCCCC(CC(=O)NC(COC1OC(CO)C(OP(=O)(O)O)C(OC(=O)CC(CCCCCCCCCCC)OC(=O)CCCCCCCCC)C1NC(=O)CC(CCCCCCCCCCC)OC(=O)CCCCCCCCC)C(=O)O)OC(=O)CCCCCCCCC (centres unmarked) [RC-527] | 4.1 × 10^6 Cells/Spleen | 3.0 × 10^6 Cells/Spleen | higher levels of splenic KJ1^+ CD4 T cell numbers than any of the other test groups at both time points | 3.9 | fully capable of supporting an IFNγ response | significantly stronger IFN-γ response after 48 hours | highest level of increased cell surface expression | highest DC expression levels | highest elevated cell surface expression | 100 | strongest induction of DC maturation and co-stimulatory molecule expression of all the AGPs tested | highest stimulation of CD86 expression over most of the titration range |  |  |
| CCCCCCCCCCCCCC(=O)O[C@H](CCCCCCCCCCC)CC(=O)NCCO[C@@H]1O[C@H](CO)[C@@H](OP(=O)(O)O)[C@H](OC(=O)C[C@@H](CCCCCCCCCCC)OC(=O)CCCCCCCCCCCCC)[C@H]1NC(=O)C[C@@H](CCCCCCCCCCC)OC(=O)CCCCCCCCCCCCC.CCN(CC)CC [RC-529, 2-[(R)-3-Tetradecanoyloxytetradecanoylamino]ethyl 2-Deoxy-4-O-phosphono-3-O-[(R)-3-tetradecanoyoxytetradecanoyl]-2-[(R)-3-tetradecanoyoxytetradecanoylamino]-β-D-glucopyranoside triethylammonium salt] |  |  |  |  |  |  | lowest overall increase in CD80 expression | weak overall increase in CD83 expression |  |  | very low to marginally positive CD80 and CD83 expression |  | 1 | 1 |
